According to patent US20200270309A1, “MALEIMIDE GROUP-MODIFIED ANGIOGENESIS INHIBITOR HM-1 AND USE THEREOF” (NANJING ANJI BIOLOGICAL TECHNOLOGY CO., LTD, priority 2017, published 2020):
Marks after values point to notes of the source that are not given here. Peptide text beside a SMILES is read from it. * marks the point of attachment. X46 = O=C1C=CC(=O)N1c1cccc(CCCCC(=O)*)c1

How the values were obtained:
[1] = Half-lives and pharmacokinetic parameters of polypeptides vs HM-1; conditions: in vivo
HUVECs = experiment: Transwell migration inhibition on HUVECs; type: cell-based, human; conditions: HUVEC migration vs blank control
[2] = tested on: xylene-induced ear swelling; experiment: Xylene-induced mouse ear swelling; type: in vivo; conditions: Kunming mice, injected once a day for 5 days; for Inhibition rate (%): xylene-induced ear swelling
Method in brief: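 Ear pieces punched and weighed 2 h after xylene (0.05 mL, right ear only; left ear as normal) gave swelling degree (right − left weight) and swelling rate (degree/left weight ×100%). Kunming mice received injections daily for 5 consecutive days, xylene applied 1 h after final dose.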

[3] = tested on: collagen-induced arthritis; experiment: Mouse collagen-induced arthritis (CIA) animal model; type: in vivo; conditions: DBA/1 mice CIA model, dose 4.0 mg/kg, subcutaneous from day 30, n=10
[4] = tested on: human retinal capillary endothelial cells (HRCECs); experiment: MTT proliferation inhibition on HRCECs; type: cell-based; conditions: 48 h; for A570 nm-A630 nm: mean±SD
Method in brief: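 HRCECs seeded at 3.0×10^4 cells/mL, adhered overnight, then exposed to polypeptide for 48 h at 37 °C, 5% CO2. MTT added 4 h, formazan dissolved in DMSO, absorbance 570/630 nm; PIR (%) = 1 − treated/negative control, mean±SD of three independent runs.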

[5] = tested on: corneal neovascularization; experiment: Corneal neovascularization induced by alkali burn in BALB/c mice; type: in vivo; set-up: Inhibition rate (corneal neovascularization): concentration or dose not given beside the values; conditions: day 14 after alkali burn, vitreous injection once a day for 1 week
[6] = tested on: choroidal neovascularization; experiment: Choroidal neovascularization in rats (laser photocoagulation, FFA); type: in vivo; conditions: BN rats
Method in brief: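 Male BN rats aged 6-8 weeks were given 8 krypton-laser spots around the optic disc (647.1 nm, 350 mW, 50 μm, 0.05 s). Once the model was confirmed, groups of 5 got daily intravitreal compound at 0.05 μM or saline for 1 week. FFA followed at 3, 7, 14 and 28 days after dosing.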

[7] = tested on: retinal neovascularization (OIR model); experiment: Retinal vessels in OIR mice; type: in vivo, C57/B16 mice
Method in brief: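 C57/B16 pups were held in 75% oxygen from postnatal day 7 to 12, then returned to room air. On day 13 they received intravitreal saline or compound. On day 17 perfused vessels were labelled by Texas red tomato agglutinin injected into the left ventricle (5 min circulation) and retinal vasculature assessed.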

[8] = day 3 after administration, total light spot number was 297, 0.05 μM in the vitreous chamber once a day for 1 week
[9] = day 7 after administration, total light spot number was 186, 0.05 μM in the vitreous chamber once a day for 1 week
[10] = day 14 after administration, total light spot number was 137, 0.05 μM in the vitreous chamber once a day for 1 week
[11] = day 28 after administration, total light spot number was 69, 0.05 μM in the vitreous chamber once a day for 1 week

## C[C@H](NC(=O)CNC(=O)[C@H](CCCNC(=N)N)NC(=O)CCCCc1cccc(N2C(=O)C=CC2=O)c1)C(=O)N[C@@H](CC(=O)O)C(=O)N[C@@H](CCCNC(=N)N)C(=O)N[C@@H](C)C(=O)NCC(=O)NCC(=O)NCC(=O)NCC(=O)N[C@@H](CCCNC(=N)N)C(=O)NCC(=O)N[C@@H](CC(=O)O)C(=O)O [X28] (X46-RGADRAGGGGRGD-OH)
[1]
  AUC(0-inf): 25100 ± 7920 ng·h/mL
  MRT inf: 45 ± 13 h
  clearance: 0.663 mL/min/kg
[1]; T1/2β (half-life)
  half-life: 31.19 ± 0.26 h
HUVECs; dose 0.05 μM
  Inhibition rate (%): 43.01%
HUVECs; dose 0.1 μM
  Inhibition rate (%): 52.75%
HUVECs; dose 0.2 μM
  Inhibition rate (%): 53.13%
[2]; dose 2 mg/kg, right minus left ear piece weight 2 h after xylene
  Swelling degree (mg): 5.25 ± 0.56** mg
[2]; dose 2 mg/kg
  Inhibition rate (%): 33.87%
[2]; dose 4 mg/kg, right minus left ear piece weight 2 h after xylene
  Swelling degree: 4.86 ± 0.63 mg
[2]; dose 4 mg/kg
  Inhibition rate (%): 15.73%
[2]; dose 8 mg/kg, right minus left ear piece weight 2 h after xylene
  Swelling degree (mg): 4.12 ± 0.93* mg
[2]; dose 8 mg/kg
  Inhibition rate (%): 21.99%
[3]
  Joint swelling degree (mm): 0.72 ± 0.18 mm
  Left and right paw swelling degree (mm): 0.73 ± 0.18 mm
[3]; highest score 16
  Clinical score: 8.83 ± 1.26
[4]; dose 0.05 μM
  Inhibition rate (%): 48.58%*
  A570 nm-A630 nm: 0.6796 ± 0.03488
[4]; dose 0.1 μM
  Inhibition rate (%): 52.72%**
  A570 nm-A630 nm: 0.6249 ± 0.09489
[4]; dose 0.2 μM
  Inhibition rate (%): 69.71%*
  A570 nm-A630 nm: 0.4004 ± 0.02963
[5]
  Inhibition rate (corneal neovascularization): 46.59%
  MVD (corneal microvessel density): 35.91 ± 4.891
[6]; [8]
  CNV Incidence (%): 50.17%
  Leakage Light spot number: 149
[6]; [9]
  CNV Incidence (%): 46.77%
  Leakage Light spot number: 87
[6]; [10]
  CNV Incidence (%): 45.26%
  Leakage Light spot number: 62
[6]; [11]
  CNV Incidence (%): 40.58%
  Leakage Light spot number: 28
[7]; dose 0.05 μM in the vitreous chamber on day 13, retinal vessels evaluated on day 17
  Area of neovascular plexus (mm^2): 0.088 ± 0.004 mm^2
[7]; dose 0.05 μM in the vitreous chamber on day 13, retinal vessels evaluated on day 17, vs negative control
  Inhibition rate (%): 58.49%**
